{"source": "patent US20230270824A1", "about": "“INTERFERON-BASED CANCER TREATMENT METHOD AND PHARMACEUTICAL COMPOSITION” (XIAMEN AMOYTOP BIOTECH CO., LTD., priority 2019, published 2023)", "molecules": {"B1": {"name": "deglycosylated mIFN-α4: recombinant mouse interferon α4 (GenBank NP_034634) expressed in Pichia pastoris, glycosyl groups removed by glycosidase (protein, UniProt P07351 25-186, looked up)", "Interferon alpha-4": "CDLPHTYNLGNKRALTVLEEMRRLPPLSCLKDRKDFGFPLEKVDNQQIQKAQAILVLRDLTQQILNLFTSKDLSATWNATLLDSFCNDLHQQLNDLKACVMQEPPLTQEDSLLAVRTYFHRITVYLRKKKHSLCAWEVIRAEVWRALSSSTNLLARLSEEKE", "modifications": "deglycosylated", "notes": "recombinant mouse interferon α4 (GenBank NP_034634) expressed in Pichia pastoris, glycosyl groups removed by glycosidase"}}, "key": {"[1]": {"system": "transplanted liver cancer H22", "assay": "Interferon combined with epirubicin, transplanted liver cancer H22 in mice (Example 10)", "format": "in vivo, BALB/c mice", "settings": "epirubicin only, 3.5 mg/kg/w i.p.", "source_text": "The manufacturer of epirubicin was Beijing Union Pharmaceutical Factory.\nStatistical tests were all two-sided tests."}, "[2]": {"system": "transplanted liver cancer H22", "assay": "Interferon combined with gemcitabine, transplanted liver cancer H22 in mice (Example 5)", "format": "in vivo, BALB/c mice", "settings": "gemcitabine only, 60 mg/kg i.p. once a week, 108 days observation", "description": "(§1) In this example, a comparative study on the efficacy of PEG-mIFN-α4 intermittent administration (once every 48 hours for three consecutive times, then drug withdrawal for 144 hours; for 8 rounds), PEG-mIFN-α4 continuous administration (once every 48 hours for 42 consecutive times), PEG-mIFN-α4 in combination with gemcitabine (PEG-mIFN-α4: once every 48 hours for three consecutive times, then drug withdrawal for 240 hours, 6 rounds; gemcitabine: once a week) on H22 transplanted liver cancer in mice was performed.\n(§2) On the day when the tumor was inoculated, they were randomly divided into PEG-mIFN-α4 continuous administration group (N=24, female 12, male 12), PEG-mIFN-α4 intermittent administration group (N=24, female 12, male 12), the normal saline control group (N=24, female 12, male 12), the gemcitabine only group (N=24, female 12, male 12), and PEG-mIFN-α4 combined with gemcitabine group (N=24, female 12, male 12).\nGemcitabine was injected intraperitoneally, 60 mg/kg.\n(§3) For the PEG-mIFN-α4 intermittent administration group, PEG-mIFN-α4 was administered once every 48 hours for three consecutive times, then drug withdrawal for 144 hours; for 8 rounds. For the PEG-mIFN-α4 continuous administration group, PEG-mIFN-α4 was administered once every 48 hours. For the PEG-mIFN-α4 combined with gemcitabine group, PEG-mIFN-α4 was administered once every 48 hours for three consecutive times, then drug withdrawal for 240 hours; for 6 rounds; and gemcitabine was administered once a week. For the gemcitabine only group, gemcitabine was administered once a week. For the saline control group, equal volume of saline was administered.\n(§4) Survival analysis was performed for all groups to compare the differences between groups."}, "[3]": {"system": "transplanted lung cancer LLC", "assay": "Interferon combined with gemcitabine, transplanted lung cancer LLC in mice (Example 6)", "format": "in vivo, C57BL/6N mice", "settings": "gemcitabine only, 60 mg/kg i.p. once a week, Day 64 post tumor inoculation, 60 mg/kg", "description": "In this example, a comparative study on the efficacy of PEG-mIFN-α4 intermittent administration (once every 48 hours for four consecutive times, then drug withdrawal for 192 hours; for 5 rounds), PEG-mIFN-α4 continuous administration (once every 48 hours for 32 consecutive times), PEG-mIFN-α4 in combination with gemcitabine (PEG-mIFN-α4: once every 48 hours for four consecutive times, then drug withdrawal for 360 hours, 4 rounds; gemcitabine: once a week) on transplanted […] LLC in mice was performed.\nas §2, with “(N=26,” for “(N=24,”, “13,” for “12,”, “13),” for “12),”, “13).” for “12).”\nas §3, with “4” for “three”, “192” for “144”, “360” for “240”, “4” for “6”, “administered. Gemcitabine was injected intraperitoneally, 60 mg/kg.” for “administered.”\n(§5) SAS9.4 software was used for comparing the difference in mortality, and the statistical tests were all two-sided tests."}, "[4]": {"system": "transplanted colorectal cancer CT26", "assay": "Interferon combined with gemcitabine, transplanted colorectal cancer CT26 in mice (Example 7)", "format": "in vivo, BALB/c mice", "settings": "gemcitabine only, 60 mg/kg i.p. once a week, 110 days observation, 60 mg/kg", "description": "as §1, with “for 11” for “for 8”, “for 55” for “for 42”, “hours, 8” for “hours, 6”, “on” for “on H22”, “transplanted colorectal” for “transplanted liver”, “cancer CT26” for “cancer”\nThe anticancer agent is Gemcitabine (Jiangsu HAOSEN Pharmaceutical).\nas §2\nGemcitabine was injected intraperitoneally, 60 mg/kg. […] For the PEG-mIFN-α4 intermittent administration group, PEG-mIFN-α4 was administered once every 48 hours for three consecutive times, then drug withdrawal for 144 hours; for 11 rounds. For the PEG-mIFN-α4 continuous administration group, PEG-mIFN-α4 was administered once every 48 hours. For the PEG-mIFN-α4 combined with gemcitabine group, PEG-mIFN-α4 was administered once every 48 hours for three consecutive times, then drug withdrawal for 240 hours; for 8 rounds; and gemcitabine was administered once a week. For the gemcitabine only group, gemcitabine was administered once a week. For the saline control group, equal volume of saline was administered.\nas §4"}, "[5]": {"system": "transplanted melanoma B16", "assay": "Interferon combined with gemcitabine, transplanted melanoma B16 in mice (Example 8)", "format": "in vivo, C57BL/6N mice", "settings": "gemcitabine only, 60 mg/kg i.p. once a week, 48 days after tumor inoculation, 60 mg/kg", "description": "In this example, a comparative study on the efficacy of PEG-mIFN-α4 intermittent administration (once every 48 hours for 3 consecutive times, then drug withdrawal for 240 hours; for 4 rounds), PEG-mIFN-α4 continuous administration (once every 48 hours for 24 consecutive times), PEG-mIFN-α4 in combination with gemcitabine (PEG-mIFN-α4: once every 48 hours for 3 consecutive times, then drug withdrawal for 240 hours, 4 rounds; gemcitabine: once a week) on transplanted melanoma B16 in mice was performed.\nas §2, with “(N=28,” for “(N=24,”, “14,” for “12,”, “14),” for “12),”, “14).” for “12).”\nFor the PEG-mIFN-α4 intermittent administration group, PEG-mIFN-α4 was administered once every 48 hours for 3 consecutive times, then drug withdrawal for 240 hours; for 4 rounds. For the PEG-mIFN-α4 continuous administration group, PEG-mIFN-α4 was administered once every 48 hours. For the PEG-mIFN-α4 combined with gemcitabine group, PEG-mIFN-α4 was administered once every 48 hours for 3 consecutive times, then drug withdrawal for 240 hours; for 4 rounds; and gemcitabine was administered once a week. For the gemcitabine only group, gemcitabine was administered once a week. For the saline control group, equal volume of saline was administered. Gemcitabine was injected intraperitoneally, 60 mg/kg.\nas §5"}, "[6]": {"system": "transplanted breast cancer 4T1", "assay": "Interferon combined with gemcitabine, transplanted breast cancer 4T1 in mice (Example 9)", "format": "in vivo, BALB/c mice", "settings": "gemcitabine only, 60 mg/kg i.p. once a week, 53 days after tumor inoculation, 60 mg/kg", "description": "In this example, a comparative study on the efficacy of PEG-mIFN-α4 intermittent administration (once every 48 hours for 3 consecutive times, then drug withdrawal for 144 hours; for 5 rounds), PEG-mIFN-α4 continuous administration (once every 48 hours for 25 consecutive times), PEG-mIFN-α4 in combination with gemcitabine (PEG-mIFN-α4: once every 48 hours for 3 consecutive times, then drug withdrawal for 240 hours, 4 rounds; gemcitabine: once a week) on transplanted breast cancer 4T1 in mice was performed.\nas §2\nFor the PEG-mIFN-α4 intermittent administration group, PEG-mIFN-α4 was administered once every 48 hours for 3 consecutive times, then drug withdrawal for 144 hours; for 5 rounds. For the PEG-mIFN-α4 continuous administration group, PEG-mIFN-α4 was administered once every 48 hours. For the PEG-mIFN-α4 combined with gemcitabine group, PEG-mIFN-α4 was administered once every 48 hours for 3 consecutive times, then drug withdrawal for 240 hours; for 4 rounds; and gemcitabine was administered once a week. For the gemcitabine only group, gemcitabine was administered once a week. For the saline control group, equal volume of saline was administered. Gemcitabine was injected intraperitoneally, 60 mg/kg.\nas §5"}, "[7]": {"system": "transplanted liver cancer H22", "settings": "oxaliplatin only, 10 mg/kg/w i.p.", "quoted_text": "6-8 weeks old, 18-22 g SPF grade BALB/c mice were subcutaneously inoculated with liver cancer H22 tumor cells (1×10^6 cells/mL, 0.2 ml/mouse) in the right forelimb axillary. 3 days after tumor inoculation, they were randomly divided into groups, with 28 mice in each group (fifty-fifty female and male mice), including normal saline control group, oxaliplatin only group, and PEG-mIFN-α4 combined with oxaliplatin group.\nThe administration was started on the day after grouping, once a week. PEG-mIFN-α4 was injected subcutaneously on the back of the neck, and oxaliplatin was injected intraperitoneally, in a dose of 10 mg/kg each time. The normal saline control group was administered an equal volume of normal saline.\nAll groups were subjected to survival curve analysis, and the median survival time was compared."}, "[8]": {"system": "transplanted liver cancer H22", "settings": "paclitaxel only, 10 mg/kg/w", "quoted_text": "In this example, BALB/c mice were purchased from Beijing Vital River Laboratory Animal Technology Co., Ltd., and the H22 mouse liver cancer cell line was purchased from the China Center for Type Culture Collection (CCTCC). The manufacturer of paclitaxel was Qilu Pharmaceutical (Hainan) Co., Ltd.\n6-8 weeks old, 18-22 g SPF grade BALB/c mice were subcutaneously inoculated with liver cancer H22 tumor cells (1×10^6 cells/mL, 0.2 ml/mouse) in the right forelimb axillary. 3 days after tumor inoculation, they were randomly divided into groups, with 28 mice in each group (fifty-fifty female and male mice), including normal saline control group, paclitaxel only group, and PEG-mIFN-α4 combined with paclitaxel group.\nThe administration was started on the day after grouping, once a week. PEG-mIFN-α4 was injected subcutaneously on the back of the neck, in a dose of 1 mg/mouse each time, and oxaliplatin was injected intraperitoneally, in a dose of 10 mg/kg each time.\nAll groups were subjected to survival curve analysis, and the median survival time was compared. SAS 9.4 and office2010 software were used for statistical analysis. Statistical tests were all two-sided tests."}, "[9]": {"system": "mouse fibroblast/encephalomyocarditis virus (L929/EMCV)", "assay": "Specific activity by mouse fibroblast/encephalomyocarditis virus (L929/EMCV) cytopathic inhibition method", "format": "cell-based", "settings": "stock solution; commercial mIFN-α4 (R&D) as the standard", "description": "(§6) The bacterial endotoxin content of the deglycosylated mIFN-α4 stock solution was determined by the Limulus reagent method as lower than 60 EU/mg. specific activity was determined as 5.4×10^8 U/mg by using the commercial mIFN-α4 (R&D, catalog number 12115-1) as the standard, and by using the mouse fibroblast/encephalomyocarditis virus (L929/EMCV) cytopathic inhibition method.\nas §6, with “PEG-mIFN-α4” for “deglycosylated mIFN-α4”, “15” for “60”, “Specific” for “specific”, “6.1×10^6” for “5.4×10^8”"}}, "note": "Like-named read-outs stand apart in the source and are kept apart here.", "data": [{"molecule": "COc1cccc2c1C(=O)c1c(O)c3c(c(O)c1C2=O)C[C@@](O)(C(=O)CO)C[C@@H]3O[C@H]1C[C@H](N)[C@@H](O)[C@H](C)O1", "note": "[Epirubicin]", "values": [{"measurement": "Median survival period (Time after tumor inoculation, days)", "setting": "[1]", "result": 15.0, "unit": "days"}, {"measurement": "Median survival period (Time after tumor inoculation, days)", "setting": "[1]; listed as epirubicin", "result": 15, "unit": "days"}]}, {"molecule": "Nc1ccn([C@@H]2O[C@H](CO)[C@@H](O)C2(F)F)c(=O)n1", "note": "[Gemcitabine, reference compound]", "values": [{"measurement": "Mean survival period (days post tumor inoculation)", "setting": "[2]", "result": 58.5, "unit": "days"}, {"measurement": "Mortality", "setting": "[3]", "result": 80.8, "unit": "%"}, {"measurement": "Mortality", "setting": "[3]; listed as gemcitabine", "result": 80.8, "unit": "%"}, {"measurement": "Mean survival period (days post tumor inoculation)", "setting": "[4]", "result": 99.0, "unit": "days"}, {"measurement": "Mean survival period (days post tumor inoculation)", "setting": "[4]; listed as gemcitabine", "result": 89.0, "unit": "days"}, {"measurement": "Mortality", "setting": "[5]", "result": 89.3, "unit": "%"}, {"measurement": "Mortality", "setting": "[5]; listed as gemcitabine", "result": 89.3, "unit": "%"}, {"measurement": "Mortality", "setting": "[6]", "result": 87.5, "unit": "%"}, {"measurement": "Mortality", "setting": "[6]; listed as gemcitabine", "result": 87.5, "unit": "%"}]}, {"molecule": "O=C1[O][Pt]2([NH][C@@H]3CCCC[C@H]3[NH]2)[O]C1=O", "note": "[Oxaliplatin]", "values": [{"measurement": "Median survival period (Time after tumor inoculation, days)", "setting": "[7]", "result": 12.5, "unit": "days"}]}, {"molecule": "CC(=O)O[C@H]1C(=O)[C@@]2(C)[C@H]([C@H](OC(=O)c3ccccc3)[C@]3(O)C[C@H](OC(=O)[C@H](O)[C@@H](NC(=O)c4ccccc4)c4ccccc4)C(C)=C1C3(C)C)[C@]1(OC(C)=O)CO[C@@H]1C[C@@H]2O", "note": "[Paclitaxel]", "values": [{"measurement": "Median survival period (Time after tumor inoculation, days)", "setting": "[8]", "result": 17.0, "unit": "days"}, {"measurement": "Median survival period (Time after tumor inoculation, days)", "setting": "[8]; listed as paclitaxel", "result": 17, "unit": "days"}]}, {"molecule": "B1", "values": [{"measurement": "Specific activity", "setting": "[9]", "result": "5.4×10^8 U/mg"}]}]}
